ChEMBL document CHEMBL4673280, “Discovery and SAR studies of 2-alkyl-3-phenyl-2,4,5,6,7,8-hexahydropyrazolo[3,4-d]azepines as 5-HT inhibitors leading to the identification of a clinical candidate” (Bioorg Med Chem Lett, 2021)

Columns and labels:
[1] = biological target: 5-hydroxytryptamine receptor 2B (Homo sapiens, UniProt P41595); experiment: Displacement of [3H]-ketanserin from human 5-HT2B receptor by competitive radioligand binding assay
[2] = biological target: T1, Adrenergic receptor alpha-1 (Rattus norvegicus, UniProt P15823+P23944+P43140); experiment: Displacement of […] from alpha1 adrenergic receptor in rat cortex membrane incubated for 60 mins by competitive radioligand binding assay; format: cell membranes
T1 sequence (P15823 whole entry): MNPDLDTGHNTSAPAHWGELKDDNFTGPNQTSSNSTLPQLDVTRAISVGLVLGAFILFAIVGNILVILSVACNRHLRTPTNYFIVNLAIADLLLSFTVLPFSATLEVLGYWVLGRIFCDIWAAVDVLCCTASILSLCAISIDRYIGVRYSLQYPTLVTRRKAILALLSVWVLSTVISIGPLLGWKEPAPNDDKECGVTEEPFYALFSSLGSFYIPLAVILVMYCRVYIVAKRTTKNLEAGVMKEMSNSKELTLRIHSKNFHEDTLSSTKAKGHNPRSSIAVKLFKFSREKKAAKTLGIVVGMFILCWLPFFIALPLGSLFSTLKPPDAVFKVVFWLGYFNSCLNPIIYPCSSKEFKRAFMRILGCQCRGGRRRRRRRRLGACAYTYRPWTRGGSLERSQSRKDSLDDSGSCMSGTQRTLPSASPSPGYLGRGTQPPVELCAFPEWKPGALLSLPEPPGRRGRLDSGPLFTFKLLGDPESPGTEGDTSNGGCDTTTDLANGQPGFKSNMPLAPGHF
T1 sequence (P23944 whole entry): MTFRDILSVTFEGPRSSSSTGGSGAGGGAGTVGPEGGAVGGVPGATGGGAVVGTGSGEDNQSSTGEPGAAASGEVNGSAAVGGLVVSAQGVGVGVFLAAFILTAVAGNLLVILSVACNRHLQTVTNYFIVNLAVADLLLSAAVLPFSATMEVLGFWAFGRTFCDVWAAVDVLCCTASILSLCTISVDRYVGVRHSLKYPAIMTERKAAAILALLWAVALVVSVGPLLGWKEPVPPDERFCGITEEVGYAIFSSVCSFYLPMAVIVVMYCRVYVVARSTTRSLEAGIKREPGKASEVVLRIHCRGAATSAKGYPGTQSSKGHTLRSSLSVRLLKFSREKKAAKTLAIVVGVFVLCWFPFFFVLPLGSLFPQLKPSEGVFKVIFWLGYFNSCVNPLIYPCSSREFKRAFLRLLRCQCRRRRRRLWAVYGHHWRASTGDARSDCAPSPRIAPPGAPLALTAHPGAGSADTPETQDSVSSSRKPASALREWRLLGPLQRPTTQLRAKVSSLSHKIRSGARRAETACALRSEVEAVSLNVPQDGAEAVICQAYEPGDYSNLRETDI
T1 sequence (P43140 whole entry): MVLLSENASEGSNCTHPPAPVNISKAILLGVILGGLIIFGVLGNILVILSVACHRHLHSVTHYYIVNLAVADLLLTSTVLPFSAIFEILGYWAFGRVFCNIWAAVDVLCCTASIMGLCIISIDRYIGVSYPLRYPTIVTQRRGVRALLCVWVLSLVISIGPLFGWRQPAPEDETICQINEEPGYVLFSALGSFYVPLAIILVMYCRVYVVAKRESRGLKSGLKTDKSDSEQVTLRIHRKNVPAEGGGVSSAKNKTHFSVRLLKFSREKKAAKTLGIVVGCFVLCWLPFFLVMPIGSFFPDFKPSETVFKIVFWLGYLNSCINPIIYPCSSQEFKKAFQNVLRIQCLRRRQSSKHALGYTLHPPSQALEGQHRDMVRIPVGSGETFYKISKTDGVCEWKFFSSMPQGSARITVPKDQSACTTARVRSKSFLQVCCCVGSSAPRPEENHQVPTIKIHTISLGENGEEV

[3] = biological target: T2, 5-hydroxytryptamine receptor 2C (Homo sapiens, UniProt P28335); experiment: Displacement of [3H]-ketanserin from human 5-HT2C receptor by competitive radioligand binding assay
T2 sequence (P28335 whole entry): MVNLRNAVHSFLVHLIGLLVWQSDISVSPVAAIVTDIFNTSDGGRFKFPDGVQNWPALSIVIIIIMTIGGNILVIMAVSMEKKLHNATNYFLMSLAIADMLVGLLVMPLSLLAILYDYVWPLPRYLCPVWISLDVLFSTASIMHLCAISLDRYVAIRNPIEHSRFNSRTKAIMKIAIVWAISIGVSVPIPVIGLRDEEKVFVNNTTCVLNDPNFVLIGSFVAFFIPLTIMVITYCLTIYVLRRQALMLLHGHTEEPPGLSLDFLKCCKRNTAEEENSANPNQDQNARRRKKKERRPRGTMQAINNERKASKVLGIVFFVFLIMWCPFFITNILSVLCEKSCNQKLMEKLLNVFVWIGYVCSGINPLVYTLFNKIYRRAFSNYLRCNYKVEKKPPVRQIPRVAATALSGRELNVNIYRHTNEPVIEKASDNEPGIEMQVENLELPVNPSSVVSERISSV

[4] = biological target: 5-hydroxytryptamine receptor 2A (Homo sapiens, UniProt P28223); experiment: Displacement of [3H]-ketanserin from human 5-HT2A receptor by competitive radioligand binding assay
Chain of 5-hydroxytryptamine receptor 2A (P28223 whole entry): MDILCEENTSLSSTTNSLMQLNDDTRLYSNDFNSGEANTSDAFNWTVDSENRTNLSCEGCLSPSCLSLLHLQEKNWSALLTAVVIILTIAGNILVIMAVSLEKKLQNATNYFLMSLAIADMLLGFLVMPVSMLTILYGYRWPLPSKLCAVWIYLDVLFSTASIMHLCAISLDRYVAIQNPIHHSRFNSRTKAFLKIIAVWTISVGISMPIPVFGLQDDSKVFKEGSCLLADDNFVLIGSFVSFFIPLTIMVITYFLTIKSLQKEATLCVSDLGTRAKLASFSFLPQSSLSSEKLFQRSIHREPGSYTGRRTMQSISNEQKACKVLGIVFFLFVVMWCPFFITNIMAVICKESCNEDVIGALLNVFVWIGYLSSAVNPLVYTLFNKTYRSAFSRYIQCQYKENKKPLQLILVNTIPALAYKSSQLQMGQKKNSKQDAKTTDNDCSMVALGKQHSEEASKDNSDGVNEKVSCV

[5] = biological target: 5-hydroxytryptamine receptor 7 (Rattus norvegicus, UniProt P32305); experiment: Displacement of [3H]-CT from rat 5-HT7 receptor expressed in HEK293 cells by competitive radioligand binding assay; format: cell-based
Chain of 5-hydroxytryptamine receptor 7 (P32305 whole entry): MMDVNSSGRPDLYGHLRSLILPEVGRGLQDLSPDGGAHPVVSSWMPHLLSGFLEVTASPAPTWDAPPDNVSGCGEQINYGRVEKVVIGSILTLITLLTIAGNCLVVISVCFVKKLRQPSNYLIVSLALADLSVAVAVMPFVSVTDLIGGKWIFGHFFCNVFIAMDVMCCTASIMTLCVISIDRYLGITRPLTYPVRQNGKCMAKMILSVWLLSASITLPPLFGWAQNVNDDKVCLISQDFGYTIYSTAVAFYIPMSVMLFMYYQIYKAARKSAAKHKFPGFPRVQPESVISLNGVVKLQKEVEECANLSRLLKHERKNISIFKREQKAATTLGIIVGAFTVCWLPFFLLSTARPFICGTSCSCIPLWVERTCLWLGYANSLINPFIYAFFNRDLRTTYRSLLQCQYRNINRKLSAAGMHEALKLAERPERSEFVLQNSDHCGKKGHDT

Chain of 5-hydroxytryptamine receptor 2B (P41595 whole entry): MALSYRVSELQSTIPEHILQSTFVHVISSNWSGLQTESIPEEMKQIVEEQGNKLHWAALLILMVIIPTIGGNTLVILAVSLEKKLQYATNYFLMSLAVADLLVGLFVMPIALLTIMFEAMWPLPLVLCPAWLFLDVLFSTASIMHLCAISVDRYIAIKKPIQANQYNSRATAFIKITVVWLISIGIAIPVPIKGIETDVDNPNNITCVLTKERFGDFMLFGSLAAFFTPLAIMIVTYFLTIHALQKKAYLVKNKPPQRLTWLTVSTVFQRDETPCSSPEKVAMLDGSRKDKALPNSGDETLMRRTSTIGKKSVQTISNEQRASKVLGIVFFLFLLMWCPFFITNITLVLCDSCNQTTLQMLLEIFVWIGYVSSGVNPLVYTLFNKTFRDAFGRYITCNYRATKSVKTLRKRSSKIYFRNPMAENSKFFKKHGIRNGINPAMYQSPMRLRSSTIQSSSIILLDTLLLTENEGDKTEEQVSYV

SMILES	Ki [1] [nM]	Ki [2] [nM]	Ki [3] [nM]	Ki [4] [nM]	Ki [5] [nM]
CC(C)n1nc2c(c1-c1ccc(C#N)cc1)CCNCC2		240	390	5	90
COc1ccc(-c2c3c(nn2C(C)C)CCNCC3)cc1	1			3	18
CC(C)n1nc2c(c1-c1ccc(Cl)cc1Cl)CCNCC2	43		220	15	400
CC(C)n1nc2c(c1-c1ccc(Cl)c(Cl)c1)CCNCC2	31		910	39	4000
Cc1ccc(-c2c3c(nn2C(C)C)CCNCC3)cc1	2	4		1	

Second part, the compound after the results:

Ki [1] [nM]	Ki [2] [nM]	Ki [3] [nM]	Ki [4] [nM]	Ki [5] [nM]	SMILES
4	220	45	1		Fc1ccc(-c2c3c(nn2C2CCC2)CCNCC3)cc1
15	10000	9000	600	150	c1ccc(-c2c3c(nn2-c2ccccc2)CCNCC3)cc1
75		1200	60	140	CCn1nc2c(c1-c1ccccc1)CCNCC2
3	500		3		c1ccc(-c2c3c(nn2C2CCC2)CCNCC3)cc1
